Here are results for 4 compounds from ChEMBL document CHEMBL6078634, “HDAC8 as a target in drug discovery: Function, structure and design” (Eur J Med Chem, 2024).

Bounds are passed on as bounds.

Experiment [1] addresses von Hippel-Lindau disease tumor suppressor/Histone deacetylase 8 (+). Put plainly: PROTAC activity at VHL/HDAC8 in human Jurkat cells assessed as induction of HDAC8 degradation measured for 6 hrs by Western blot analysis. (Immunoblotting shows a protein as a band on a membrane.)
For the next experiment, the target named is Histone deacetylase. In words: Inhibition of HDAC in human HeLa nuclear extract using Boc-Lys(Ac)-AMC or Boc-Lys(Tfa)-AMC as substrate pre-incubated for 5 mins followed by substrate addition and measured after 30 mins by fluorescence assay. The class given is cell-free.
In another experiment the target is Histone deacetylase 2 (Homo sapiens, UniProt Q92769). Put plainly: Inhibition of HDAC2 (unknown origin).
Another experiment concerns the target T1, Histone deacetylase 8 (Homo sapiens, UniProt Q9BY41).
T1 sequence (Q9BY41 whole entry): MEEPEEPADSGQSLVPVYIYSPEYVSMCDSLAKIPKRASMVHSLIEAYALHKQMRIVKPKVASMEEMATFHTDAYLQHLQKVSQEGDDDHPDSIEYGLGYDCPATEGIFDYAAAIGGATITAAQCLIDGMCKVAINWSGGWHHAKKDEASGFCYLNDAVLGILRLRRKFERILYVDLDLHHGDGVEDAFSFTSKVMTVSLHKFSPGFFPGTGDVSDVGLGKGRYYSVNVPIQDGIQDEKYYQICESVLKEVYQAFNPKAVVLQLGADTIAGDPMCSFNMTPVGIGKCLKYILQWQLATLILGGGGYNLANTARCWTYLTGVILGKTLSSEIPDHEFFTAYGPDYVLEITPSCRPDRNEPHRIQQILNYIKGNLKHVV
In words: Inhibition of HDAC8 (unknown origin) using biotinylated histone H3 KAc peptide (1 to 21 residues) as substrate by HTRF assay. Background: In TR-FRET formats the signal depends on donor and acceptor labels being close together.

Chain of Histone deacetylase 2 (Q92769 whole entry): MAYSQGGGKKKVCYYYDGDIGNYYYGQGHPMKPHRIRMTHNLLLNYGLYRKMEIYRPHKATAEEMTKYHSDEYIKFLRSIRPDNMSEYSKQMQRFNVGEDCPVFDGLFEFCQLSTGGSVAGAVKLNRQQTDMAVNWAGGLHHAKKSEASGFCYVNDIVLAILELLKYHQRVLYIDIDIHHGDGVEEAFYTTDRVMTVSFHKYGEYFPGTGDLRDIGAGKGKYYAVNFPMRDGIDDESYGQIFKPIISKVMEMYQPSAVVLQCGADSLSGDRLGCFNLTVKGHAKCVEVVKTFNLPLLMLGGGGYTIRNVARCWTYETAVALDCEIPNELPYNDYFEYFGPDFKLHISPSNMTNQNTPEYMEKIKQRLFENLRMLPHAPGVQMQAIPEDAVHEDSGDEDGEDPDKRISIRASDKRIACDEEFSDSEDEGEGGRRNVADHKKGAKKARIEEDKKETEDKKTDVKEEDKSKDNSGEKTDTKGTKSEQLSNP

What is called DC50 is the concentration at which degradation of the target reaches its halfway point. Take `COc1ccc(C(=O)NO)cc1OCc1ccc(C(=O)NCCCCCCCCNc2cccc3c2C(=O)N(C2CCC(=O)NC2=O)C3=O)cc1` (stereo not given): the DC50 in experiment [1] was 0.0018 µM.

For the compound `O=C1CCC(N2C(=O)c3cccc(NCc4cn(CCOCCOc5ccc(Cn6ccc7ccc(C(=O)NO)cc76)cc5)nn4)c3C2=O)C(=O)N1` (stereo not given), the DC50 in experiment [1] turned out to be 0.58 µM.

By IC50 is commonly meant the midpoint of a concentration-inhibition curve. As to `COc1ccc(/C=C/C(=O)NO)c(-c2ccc(Br)cc2)c1`, the IC50 against Histone deacetylase is above 10 µM.

For `O=c1cc(-c2ccccc2)oc2cc(O)cc(O)c12` [CHRYSIN], the IC50 at Histone deacetylase 2 came out at 129 µM; at Histone deacetylase 8 it was 40.2 µM.
